Test results as given in ChEMBL document CHEMBL1157533 (J Med Chem, 2008).

How the values were obtained:
[1] = Bioavailability in dog; format: ADME, organism-based, Canis lupus familiaris; conditions: in vivo
[2] = Protein binding in Beagle dog serum; format: ADME, cell-free, Canis lupus familiaris; conditions: read-out: PPB (converted)
[3] = target: Beta-3 adrenergic receptor (Homo sapiens, UniProt P13945); experiment: Agonist activity at human recombinant beta3 adrenergic receptor expressed in CHO cells assessed as cAMP accumulation by enzyme immuno assay; format: functional, cell-based
[4] = target: Beta-1 adrenergic receptor (Homo sapiens, UniProt P08588); experiment: Agonist activity at human recombinant beta-1 adrenergic receptor expressed in CHO cells assessed as cAMP accumulation by enzyme immuno assay; format: functional, cell-based
[5] = Cmax in dog at 0.1 mg/kg, po by cassette assay; format: ADME, organism-based, Canis lupus familiaris; parameters: dose 0.1 mg/kg, route oral; conditions: in vivo
[6] = Bioavailability in dog at 0.1 mg/kg, po by cassette assay; format: ADME, organism-based, Canis lupus familiaris; conditions: in vivo
[7] = AUC (0 to 24 hrs) in dog at 0.1 mg/kg, po by cassette assay; format: ADME, organism-based, Canis lupus familiaris; parameters: time < 24 hr, dose 0.1 mg/kg, route oral; conditions: plasma
[8] = Terminal half life in dog at 0.1 mg/kg, iv by cassette assay; format: ADME, organism-based, Canis lupus familiaris; parameters: dose 0.1 mg/kg, route intravenous; conditions: in vivo, read-out: beta t1/2 (converted)
[9] = Total clearance in dog at 0.1 mg/kg, iv by cassette assay; format: ADME, organism-based, Canis lupus familiaris; parameters: dose 0.1 mg/kg, route intravenous; conditions: in vivo
[10] = target: Beta-2 adrenergic receptor (Homo sapiens, UniProt P07550); experiment: Agonist activity at human recombinant beta2 adrenergic receptor expressed in CHO cells assessed as cAMP accumulation by enzyme immuno assay; format: functional, cell-based
[11] = Terminal half life in Beagle dog at 0.1 mg/kg, iv by cassette assay; format: ADME, organism-based, Canis lupus familiaris; parameters: dose 0.1 mg/kg, route intravenous; conditions: in vivo, read-out: beta t1/2 (converted)
[12] = Volume of distribution at steady state in Beagle dog at 0.1 mg/kg, iv by cassette assay; format: ADME, organism-based, Canis lupus familiaris; parameters: dose 0.1 mg/kg, route intravenous; conditions: in vivo, read-out: Vdss
[13] = AUC (0 to 24 hrs) in Beagle dog at 0.1 mg/kg, iv by cassette assay; format: ADME, organism-based, Canis lupus familiaris; parameters: time < 24 hr, dose 0.1 mg/kg, route intravenous; conditions: plasma
[14] = Total clearance in Beagle dog at 0.1 mg/kg, iv by cassette assay; format: ADME, organism-based, Canis lupus familiaris; parameters: dose 0.1 mg/kg, route intravenous; conditions: in vivo
[15] = Bioavailability in Beagle dog at 0.1 mg/kg, po by cassette assay; format: ADME, organism-based, Canis lupus familiaris; conditions: in vivo
[16] = AUC (0 to 2 hrs) in Beagle dog at 0.1 mg/kg, po by cassette assay; format: ADME, organism-based, Canis lupus familiaris; parameters: time < 2 hr, dose 0.1 mg/kg, route oral; conditions: plasma

Sequence of Beta-1 adrenergic receptor (P08588 whole entry): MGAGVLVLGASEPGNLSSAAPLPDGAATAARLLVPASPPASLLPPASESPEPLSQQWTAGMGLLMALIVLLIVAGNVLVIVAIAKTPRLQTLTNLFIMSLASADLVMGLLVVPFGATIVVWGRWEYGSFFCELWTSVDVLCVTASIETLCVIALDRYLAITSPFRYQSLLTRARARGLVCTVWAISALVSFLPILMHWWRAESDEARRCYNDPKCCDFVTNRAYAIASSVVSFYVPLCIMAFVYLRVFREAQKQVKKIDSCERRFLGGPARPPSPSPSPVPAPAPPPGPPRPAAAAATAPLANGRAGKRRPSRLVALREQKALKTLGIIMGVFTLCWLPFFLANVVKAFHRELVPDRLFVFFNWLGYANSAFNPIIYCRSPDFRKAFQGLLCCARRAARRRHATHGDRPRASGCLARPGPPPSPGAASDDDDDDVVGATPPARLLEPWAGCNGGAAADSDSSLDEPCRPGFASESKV
Sequence of Beta-3 adrenergic receptor (P13945 whole entry): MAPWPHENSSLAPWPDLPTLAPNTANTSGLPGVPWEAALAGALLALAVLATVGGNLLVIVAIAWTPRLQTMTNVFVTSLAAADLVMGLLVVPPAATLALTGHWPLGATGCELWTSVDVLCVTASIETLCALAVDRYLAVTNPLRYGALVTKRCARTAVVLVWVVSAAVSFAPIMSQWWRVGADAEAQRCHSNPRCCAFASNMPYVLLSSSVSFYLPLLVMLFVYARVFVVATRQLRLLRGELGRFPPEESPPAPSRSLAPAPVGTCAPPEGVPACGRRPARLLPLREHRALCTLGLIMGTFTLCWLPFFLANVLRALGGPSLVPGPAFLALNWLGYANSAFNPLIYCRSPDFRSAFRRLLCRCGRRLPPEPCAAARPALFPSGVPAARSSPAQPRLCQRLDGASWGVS
Sequence of Beta-2 adrenergic receptor (P07550 whole entry): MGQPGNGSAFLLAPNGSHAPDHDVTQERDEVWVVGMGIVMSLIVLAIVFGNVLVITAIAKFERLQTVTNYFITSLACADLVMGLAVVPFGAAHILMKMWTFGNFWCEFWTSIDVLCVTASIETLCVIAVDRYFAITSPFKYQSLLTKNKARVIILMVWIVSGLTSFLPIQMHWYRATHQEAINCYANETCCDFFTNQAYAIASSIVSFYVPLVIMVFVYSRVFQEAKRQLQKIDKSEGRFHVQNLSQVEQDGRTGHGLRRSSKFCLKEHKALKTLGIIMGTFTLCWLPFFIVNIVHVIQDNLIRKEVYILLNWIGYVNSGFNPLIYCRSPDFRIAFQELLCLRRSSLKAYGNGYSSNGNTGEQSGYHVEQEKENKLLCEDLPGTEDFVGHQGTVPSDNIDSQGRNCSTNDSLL

Compound | EC50 [3] | EC50 [4] | also measured
O=C(O)c1ccc(-c2ccc(CCNC[C@H](O)c3cccc(Cl)c3)cc2)cc1OC1CCCCC1 |  |  | bioavailability [1]: 0%
CC(C)Oc1cc(-c2ccc(CCNC[C@H](O)c3ccccc3)cc2)ccc1C(=O)O |  |  | fraction unbound [2]: 0.14
COc1cc(-c2ccc(CCNC[C@H](O)c3cccc(Cl)c3)cc2)ccc1C(=O)O |  |  | bioavailability [1]: 58%
CC(C)Cc1cc(-c2ccc(CCN[C@@H](C)[C@H](O)c3ccccc3)cc2)ccc1C(=O)O | 0.14 nM | 300 nM | 
CC(C)Oc1cc(-c2ccc(OCCNC[C@H](O)c3cccc(Cl)c3)cc2)ccc1C(=O)O | 0.5 nM | 84 nM | 
CCCOc1cc(-c2ccc(OCCNC[C@H](O)c3cccc(Cl)c3)cc2)ccc1C(=O)O | 0.21 nM | 120 nM | Cmax [5]: 40.6 ng/mL; bioavailability [6]: 69.7%; AUC(0-t) at 24 h [7]: 420 ng·h/mL; half-life [8]: 10.9 h; clearance [9]: 2.9 mL/min/kg
CC(C)COc1cc(-c2ccc(OCCNC[C@H](O)c3cccc(Cl)c3)cc2)ccc1C(=O)O | 0.32 nM | 110 nM | 
CC(C)Oc1cc(-c2ccc(C[C@@H](C)NC[C@H](O)c3cccnc3)cc2)ccc1C(=O)O | 0.099 nM | 80 nM | EC50 [10]: > 1000 nM
CCCOc1cc(-c2ccc(CCN[C@@H](C)[C@H](O)c3ccccc3)cc2)ccc1C(=O)O | 0.43 nM | 690 nM | EC50 [10]: > 10000 nM
C[C@H](Cc1ccc(-c2ccc(C(=O)O)c(OC3CCCCC3)c2)cc1)NC[C@H](O)c1cccnc1 | 0.069 nM | 24 nM | 
CC(C)COc1cc(-c2ccc(C[C@@H](C)NC[C@H](O)c3ccccc3)cc2)ccc1C(=O)O | 0.041 nM | 130 nM | half-life [11]: 17.7 h; Vd [12]: 30.8 L/kg; AUC(0-t) at 24 h [13]: 44.5 ng·h/mL; clearance [14]: 39 mL/min/kg; bioavailability [15]: 0.4%; AUC(0-t) at 2 h [16]: 0.2 ng·h/mL
CC(C)Oc1cc(-c2ccc(CC(C)(C)NC[C@H](O)c3ccccc3)cc2)ccc1C(=O)O | 0.91 nM | 280 nM | 
CC(C)Cc1cc(-c2ccc(OCCNC[C@H](O)c3cccc(Cl)c3)cc2)ccc1C(=O)O | 0.68 nM | 15 nM | 
CC(C)Oc1cc(-c2ccc(C[C@H](CO)NC[C@H](O)c3ccccc3)cc2)ccc1C(=O)O | 7.4 nM | > 1000 nM | 
CCCOc1cc(-c2ccc(NCCNC[C@H](O)c3cccc(Cl)c3)cc2)ccc1C(=O)O | 0.21 nM | 11 nM | 
CC(C)Cc1cc(-c2ccc(OCCNC[C@H](O)c3ccc(N)nc3)cc2)ccc1C(=O)O | 0.059 nM | 12 nM | Cmax [5]: 11.6 ng/mL; bioavailability [6]: 34.8%; AUC(0-t) at 24 h [7]: 38.2 ng·h/mL; half-life [8]: 9.5 h; clearance [9]: 14.2 mL/min/kg
O=C(O)c1ccc(-c2ccc(OCCNC[C@H](O)c3ccccc3)cc2)cc1OC1CCCCC1 | 0.16 nM | 91 nM | 
CCCOc1cc(-c2ccc(CCCNC[C@H](O)c3cccc(Cl)c3)cc2)ccc1C(=O)O | 0.7 nM | 180 nM | 
CCCOc1cc(-c2ccc(OCCNC[C@H](O)c3ccccc3)cc2)ccc1C(=O)O | 1.2 nM | 210 nM | 
CC(C)COc1cc(-c2ccc(OCCNC[C@H](O)c3ccccc3)cc2)ccc1C(=O)O | 0.55 nM | 400 nM | 
CC(C)Oc1cc(-c2ccc(CCNC[C@H](O)c3ccc(Cl)cc3)cc2)ccc1C(=O)O | 2.4 nM | 500 nM | 
